Patent US10577363B2, “Substituted piperidine compounds” (EPIZYME, INC., priority 2014, dated 2020)

Target: SMYD3 (Homo sapiens (Human), UniProt Q9H7B4)
Assay: SMYD3 biochemical assay (SPA, 3H-SAM methylation of MEKK2 protein substrate)
Settings: read-out: SMYD3 Biochem IC50 (μM)*
Summary of the method: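 Full-length native human SMYD3 (E. coli-expressed, tags removed) preincubated with compounds 30 min at room temperature, then reaction started with 3H-SAM and GST-tagged MEKK2 protein in 25 mM Tris-Cl pH 8.0, 1 mM TCEP, 0.005% BSG, 0.005% Tween 20. Quenched with unlabelled SAM (100 uM final); 3H-MEKK2 counted by SPA.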

| IC50 | SMILES |
| --- | --- |
| 1.9 µM | C[C@@H]1CC(NC(=O)c2cc(C3CC3)on2)CCN1C(=O)[C@@H]1CC[C@H](N)C1 (stereo partly drawn) [compound 96, N-((2R)-1-((1R,3S)-3-aminocyclopentane-1-carbonyl)-2-methylpiperidin-4-yl)-5-cyclopropylisoxazole-3-carboxamide] |
| 0.779 µM | C[C@@H]1CC(NC(=O)c2cc(C3CC3)on2)CCN1C(=O)[C@H]1C[C@H](N)C1 (stereo partly drawn) [compound 97, N-((2R)-1-((1r,3R)-3-aminocyclobutane-1-carbonyl)-2-methylpiperidin-4-yl)-5-cyclopropylisoxazole-3-carboxamide] |
| 0.655 µM | CCCC1CC(NC(=O)c2cc(C3CC3)on2)CCN1C(=O)[C@H]1CC[C@H](N)CC1 (stereo partly drawn) [compound 98, N-(1-((1r,4r)-4-aminocyclohexane-1-carbonyl)-2-propylpiperidin-4-yl)-5-cyclopropylisoxazole-3-carboxamide] |
| 2.2 µM | N[C@H]1CC[C@H](C(=O)N2CCC(NC(=O)c3cc(C4CC4)on3)CC23CCC3)CC1 (stereo partly drawn) [compound 100, N-(5-((1r,4r)-4-aminocyclohexane-1-carbonyl)-5-azaspiro[3.5]nonan-8-yl)-5-cyclopropylisoxazole-3-carboxamide] |
| 1.45 µM | C[C@H]1CC(NC(=O)c2cc(C3CC3)on2)CCN1C(=O)CC(C)(C)CN (stereo partly drawn) [compound 103, N-((2S)-1-(4-amino-3,3-dimethylbutanoyl)-2-methylpiperidin-4-yl)-5-cyclopropylisoxazole-3-carboxamide] |
| 0.566 µM | C[C@@H]1CC(NC(=O)c2cc(C3CC3)on2)CCN1C(=O)CC(C)(C)CN (stereo partly drawn) [compound 104, N-((2R)-1-(4-amino-3,3-dimethylbutanoyl)-2-methylpiperidin-4-yl)-5-cyclopropylisoxazole-3-carboxamide] |
| 20 µM | C[C@H]1CC(NC(=O)c2cc(C3CC3)on2)CCN1C(=O)[C@H]1CC[C@H](N(C)C)CC1 (stereo partly drawn) [compound 105, 5-cyclopropyl-N-((2S)-1-((1r,4S)-4-(dimethylamino)cyclohexane-1-carbonyl)-2-methylpiperidin-4-yl)isoxazole-3-carboxamide] |
| 3.52 µM | C[C@H]1CC(NC(=O)c2cc(C3CC3)on2)CCN1C(=O)[C@H]1CCC[C@H](N)C1 (stereo partly drawn) [compound 106, N-((2S)-1-((1S,3S)-3-aminocyclohexane-1-carbonyl)-2-methylpiperidin-4-yl)-5-cyclopropylisoxazole-3-carboxamide] |
| 2.52 µM | C[C@@H]1CC(NC(=O)c2cc(C3CC3)on2)CCN1C(=O)C1CCCNC1 (stereo partly drawn) [compound 107, 5-cyclopropyl-N-((2R)-2-methyl-1-(piperidine-3-carbonyl)piperidin-4-yl)isoxazole-3-carboxamide] |
| 1.42 µM | N[C@H]1CC[C@H](C(=O)N2CCC(NC(=O)c3cc(C4CC4)on3)CC2Cc2ccccc2)CC1 (stereo partly drawn) [compound 108, N-(1-((1r,4r)-4-aminocyclohexane-1-carbonyl)-2-benzylpiperidin-4-yl)-5-cyclopropylisoxazole-3-carboxamide] |
| 2.47 µM | NC[C@H](Cc1ccc(O)c(C(F)(F)F)c1)C(=O)N1CCC(NC(=O)c2cc(C3CC3)on2)CC1 [compound 111, (S)-N-(1-(3-amino-2-(4-hydroxy-3-(trifluoromethyl)benzyl)propanoyl)piperidin-4-yl)-5-cyclopropylisoxazole-3-carboxamide] |
| 1.09 µM | CC(C)c1cc(C[C@H](CN)C(=O)N2CCC(NC(=O)c3cc(C4CC4)on3)CC2)ccc1O [compound 112, (R)-N-(1-(3-amino-2-(4-hydroxy-3-isopropylbenzyl)propanoyl)piperidin-4-yl)-5-cyclopropylisoxazole-3-carboxamide] |
| 4.59 µM | C[C@@H]1CC(NC(=O)c2cc(C3CC3)on2)CCN1C[C@H]1CC[C@H](N)CC1 (stereo partly drawn) [compound 113, N-((2R)-1-(((1r,4R)-4-aminocyclohexyl)methyl)-2-methylpiperidin-4-yl)-5-cyclopropylisoxazole-3-carboxamide] |
| 1.31 µM | CC1(C)CC(NC(=O)c2cc(C3CC3)on2)CCN1C(=O)[C@H]1CC[C@H](N)CC1 (stereo partly drawn) [compound 114, N-(1-((1r,4r)-4-aminocyclohexane-1-carbonyl)-2,2-dimethylpiperidin-4-yl)-5-cyclopropylisoxazole-3-carboxamide] |
| 0.472 µM | C[C@H]1CC(NC(=O)c2cc(C3CC3)on2)CCN1C(=O)CC1(C)CCNCC1 (stereo partly drawn) [compound 115, 5-cyclopropyl-N-((2S)-2-methyl-1-(2-(4-methylpiperidin-4-yl)acetyl)piperidin-4-yl)isoxazole-3-carboxamide] |
| 2.91 µM | C[C@@H]1CC(NC(=O)c2cc(C3CC3)on2)CCN1C(=O)CC1(C)CCNCC1 (stereo partly drawn) [compound 116, 5-cyclopropyl-N-((2R)-2-methyl-1-(2-(4-methylpiperidin-4-yl)acetyl)piperidin-4-yl)isoxazole-3-carboxamide] |
| 5.6 µM | C[C@H]1CC(NC(=O)c2cc(C3CC3)on2)CCN1C(=O)[C@H]1CCC[C@@H](N)C1 (stereo partly drawn) [compound 117, N-((2S)-1-((1S,3R)-3-aminocyclohexane-1-carbonyl)-2-methylpiperidin-4-yl)-5-cyclopropylisoxazole-3-carboxamide] |
| 2.99 µM | CCOC(=O)C1CN(C(=O)CC2CCNCC2)CCC1NC(=O)c1cc(C2CC2)on1 (stereo not drawn) [compound 119, ethyl 4-(5-cyclopropylisoxazole-3-carboxamido)-1-(2-(piperidin-4-yl)acetyl)piperidine-3-carboxylate] |
| 0.0816 µM | NC[C@@H](Cc1ccc(O)c(C(F)(F)F)c1)C(=O)N1CCC(NC(=O)c2cc(C3CC3)on2)CC1 [compound 120, (R)-N-(1-(3-amino-2-(4-hydroxy-3-(trifluoromethyl)benzyl)propanoyl)piperidin-4-yl)-5-cyclopropylisoxazole-3-carboxamide] |
| 0.851 µM | C[C@@H]1CC(NC(=O)c2cc(C3CC3)on2)CCN1C(=O)N1CCC(N)CC1 (stereo partly drawn) [compound 122, N-((2R)-1-(4-aminopiperidine-1-carbonyl)-2-methylpiperidin-4-yl)-5-cyclopropylisoxazole-3-carboxamide] |
| 1.17 µM | N[C@H]1CC[C@H](C(=O)N2CC3CC2CC3NC(=O)c2cc(C3CC3)on2)CC1 (stereo partly drawn) [compound 123, N-(2-((1r,4r)-4-aminocyclohexane-1-carbonyl)-2-azabicyclo[2.2.1]heptan-5-yl)-5-cyclopropylisoxazole-3-carboxamide] |
| 0.844 µM | C[C@H]1CC(NC(=O)c2cc(C3CC3)on2)CCN1C(=O)CC1CC2CCC(C1)N2 (stereo partly drawn) [compound 128, N-((2S)-1-(2-(8-azabicyclo[3.2.1]octan-3-yl)acetyl)-2-methylpiperidin-4-yl)-5-cyclopropylisoxazole-3-carboxamide] |
| 0.595 µM | C[C@@H]1CC(NC(=O)c2cc(C3CC3)on2)CCN1C(=O)CC1CC2CCC(C1)N2 (stereo partly drawn) [compound 129, N-((2R)-1-(2-(8-azabicyclo[3.2.1]octan-3-yl)acetyl)-2-methylpiperidin-4-yl)-5-cyclopropylisoxazole-3-carboxamide] |
| 1.3 µM | C[C@H]1CC(NC(=O)c2cc(C3CC3)on2)CCN1C(=O)C1CC2(CC(N)C2)C1 (stereo partly drawn) [compound 130, N-((2S)-1-(6-aminospiro[3.3]heptane-2-carbonyl)-2-methylpiperidin-4-yl)-5-cyclopropylisoxazole-3-carboxamide] |
| 2.08 µM | C[C@H]1CC(NC(=O)c2cc(C3CC3)on2)CCN1C(=O)[C@H]1CC[C@H](N)CO1 (stereo partly drawn) [compound 131, N-((2S)-1-((2R,5S)-5-aminotetrahydro-2H-pyran-2-carbonyl)-2-methylpiperidin-4-yl)-5-cyclopropylisoxazole-3-carboxamide] |
| 5.55 µM | C[C@H]1CC(NC(=O)c2cc(C3CC3)on2)CCN1C(=O)C1CCCNC1 (stereo partly drawn) [compound 132, 5-cyclopropyl-N-((2S)-2-methyl-1-(piperidine-3-carbonyl)piperidin-4-yl)isoxazole-3-carboxamide] |
| 6.24 µM | C[C@H]1CC(NC(=O)c2cc(C3CC3)on2)CCN1C(=O)C[C@H](O)CCN (stereo partly drawn) [compound 133, N-((2S)-1-((R)-5-amino-3-hydroxypentanoyl)-2-methylpiperidin-4-yl)-5-cyclopropylisoxazole-3-carboxamide] |
| 1.86 µM | C[C@@H]1CC(NC(=O)c2cc(C3CC3)on2)CCN1C(=O)C[C@H](O)CCN (stereo partly drawn) [compound 134, N-((2R)-1-((R)-5-amino-3-hydroxypentanoyl)-2-methylpiperidin-4-yl)-5-cyclopropylisoxazole-3-carboxamide] |
| 2.49 µM | C[C@@H]1CC(NC(=O)c2cc(C3CC3)on2)CCN1C(=O)C1CNCC(O)C1 (stereo partly drawn) [compound 135, 5-cyclopropyl-N-((2R)-1-(5-hydroxypiperidine-3-carbonyl)-2-methylpiperidin-4-yl)isoxazole-3-carboxamide] |

| SMILES | IC50 |
| --- | --- |
| N[C@H]1CC[C@H](C(=O)N2[C@@H]3CC[C@H]2C[C@H](NC(=O)c2cc(C4CC4)on2)C3)CC1 [compound 101, N-((1R,3S,5S)-8-((1r,4R)-4-aminocyclohexane-1-carbonyl)-8-azabicyclo[3.2.1]octan-3-yl)-5-cyclopropylisoxazole-3-carboxamide] | > 10 µM |
| O=C(NC1CC2CCCC(C1)N2C(=O)CC1CCNCC1)c1cc(C2CC2)on1 (stereo not drawn) [compound 125, 5-cyclopropyl-N-(9-(2-(piperidin-4-yl)acetyl)-9-azabicyclo[3.3.1]nonan-3-yl)isoxazole-3-carboxamide] | 7.76 µM |
| O=C(N[C@@H]1C[C@H]2CC[C@@H](C1)N2C(=O)CC1CCNCC1)c1cc(C2CC2)on1 [compound 126, 5-cyclopropyl-N-((1R,3s,5S)-8-(2-(piperidin-4-yl)acetyl)-8-azabicyclo[3.2.1]octan-3-yl)isoxazole-3-carboxamide] | 9.86 µM |
| O=C(N[C@H]1C[C@H]2CC[C@@H](C1)N2C(=O)CC1CCNCC1)c1cc(C2CC2)on1 [compound 127, 5-cyclopropyl-N-((1R,3r,5S)-8-(2-(piperidin-4-yl)acetyl)-8-azabicyclo[3.2.1]octan-3-yl)isoxazole-3-carboxamide] | 1.28 µM |
